One series deals with rabbit ear acne model. Nature of the series: Rabbit ear acne model: epidermal thickness, hair follicle area, sebaceous gland diameter. The format is in vivo, New Zealand rabbits. The note with it: rabbit right ear. An excerpt:
New Zealand rabbits were, according to weights, randomly divided into the model control group (applied cream matrix), positive treatment group (applied Differin on the skin), CLY-1 external treatment group (0.25% CLY-1 cream on the skin), CLY-2 external treatment group (0.25% CLY-2 cream on the skin), CLY-3 external treatment group (0.25% CLY-3 cream on the skin), CLY-4 external treatment group (0.25% CLY-4 cream on the skin) CLY-8 external treatment group (0.25% CLY-8 cream on the skin), CLY-9 external treatment group (0.25% CLY-9 cream on the skin), CLY-11 external treatment group (0.25% CLY-11 cream on the skin), CLY-19 external treatment group (0.25% CLY-19 cream on the skin), CLY-36 external treatment group (0.25% CLY-36 cream on the skin); CLY-1 intravenous injection group (1 mg/kg·d), CLY-2 intravenous injection group (1 mg/kg·d), CLY-3 intravenous injection group (1 mg/kg·d), CLY-4 intravenous injection group (1 mg/kg·d), CLY-8 intravenous injection group (1 mg/kg·d), CLY-9 intravenous injection group (1 mg/kg·d), CLY-11 intravenous injection group (1 mg/kg·d), CLY-19 intravenous injection group (1 mg/kg·d), and CLY-36 intravenous injection group (1 mg/kg·d), with 10 in each group. Took the inner side of the rabbit's right ear for depilation treatment as the observation area, and the inner side of the left ear of all rabbits as their own negative control, and applied 95% alcohol. The inner side of the right ear of the model group and the treatment group were both coated with 2% coal tar (Alfa Aesar China, which used 95% alcohol to prepare 2% coal tar solution), and evenly applied the sterile cotton swab to the opening of the ear duct on the inner side of the rabbit's ear within the range of about 2 cm×2 cm, once a day, 0.5 mL each time, and wiped the previous application site with warm water for 14 consecutive days to establish the acne micro-pigmentation model. Visually observed the changes of local skin, including ear thickness, hardness, roughness, and whether there was a black angle plug at the hair follicle mouth. 18 hours after the last application, the sample was sacrificed and skin was taken. The skin tissue was taken from the application site by using a 5 mm punch, fixed with 10% formaldehyde, embedded in paraffin, and stained with HE. The histopathological observation and analysis were carried out.
The histopathological changes were observed under the microscope, and the thickness of five different epidermises on a slice was measured with the Biomias99 image analysis system, and the average value was calculated; Detected the area of the two hair follicles and the diameter of the four sebaceous glands with the same position and the most complete structure in the four sections, calculated their average values, and then subtracted the data of the left and right external auditory canal of the rabbits in each group to obtain the difference in the thickness of the left and right ear epidermis, the difference in the area of the hair follicles and the difference in the diameter of the sebaceous glands.
SPSS16 software was used for statistical analysis. The paired t-test was used for the left and right self-contrast, and the t-test was used for the comparison between the groups, P<0.05 was statistically significant.

A further series has as its system rat hair loss model. Briefly: Rat hair loss (androgenic alopecia) model: hair length. The format is in vivo, Wistar rats. Particulars: for 15-day hair length / 30-day hair length / 45-day hair length / 60-day hair length: rat AGA model; for adverse reactions: rat hair loss model, external use and system application, 60 days. From the text:
(1) Compound CLY-1, CLY-2, CLY-3, CLY-4, CLY-5, CLY-8, CLY-11, CLY-19, CLY-36, CLY-39 tincture preparation method: 75% ethanol was mixed with appropriate amount of above compounds to prepare a tincture of different concentrations.
(2) Positive treatment drug: 5% minoxidil tincture (trade name: Mandi, Zhejiang Wanma Pharmaceutical Co., Ltd.).
Wistar rats were, according to weights, randomly divided into the negative control group (75% ethanol for external use), model group (75% ethanol for external use), positive control group (external 5% minoxidil tincture), CLY-1 external treatment group (external 5% CLY-1 tincture), CLY-2 external treatment group (external 5% CLY-2 tincture), CLY-3 external treatment group (external 5% CLY-3 tincture), CLY-4 external treatment group (external 5% CLY-4 tincture), and CLY-5 external treatment group (external 5% CLY-5 tincture) according to their body weight CLY-8 external treatment group (external 5% CLY-8 tincture), CLY-11 external treatment group (external 5% CLY-11 tincture), CLY-19 external treatment group (external 5% CLY-19 tincture), CLY-36 external treatment group (external 5% CLY-36 tincture), CLY-39 external treatment group (external 5% CLY-39 tincture), CLY-1 intravenous injection group (2 mg/kg·d), CLY-3 intravenous injection group (2 mg/kg·d), CLY-4 intravenous injection group (2 mg/kg·d) CLY-5 intravenous injection group (2 mg/kg·d), CLY-8 intravenous injection group (2 mg/kg·d), CLY-11 intravenous injection group (2 mg/kg·d), CLY-19 intravenous injection group (2 mg/kg·d), CLY-36 intravenous injection group (2 mg/kg·d), and CLY-39 intravenous injection group (2 mg/kg·d), with 10 rats in each group. Before the experiment, an area of 4 cm×5 cm was selected on each rat on the back of the neck to remove hair as the observation area. In addition to the negative control group, rats were subcutaneously injected with testosterone propionate injection [5 ml/(kg·d)] once a day for 60 days to establish the androgenic alopecia (AGA) model. […] At the same time, the drug was applied to the observation area on the back of the rats in the corresponding drug group at the rate of 2 mL/(one time), twice a day, at an interval of 8 hours; Intravenous administration once a day. The negative control group and the model control group were smeared with 75% ethanol solution, 2 mL/(one rat per time), twice a day, for 60 days.
Took 10 hairs from the observation area on the back of each rat every 15 days after administration, and measured the hair length with a vernier caliper. After 60 days of administration, the skin of the experimental observation area was taken for routine tissue dehydration, paraffin embedding, HE staining, and light microscopy to observe the histopathological changes of the rat skin hair follicles and sebaceous glands. Semi-quantitative analysis was performed for each group. The grading criteria are as follows: the normal structure of dermal tissue cells, subcutaneous hair follicles, and sebaceous glands is marked as […]: no hyperplasia of dermal tissue is found, the lesions of hair follicles and sebaceous glands are limited, and no inflammation is found under the skin is marked as “+”: no obvious hyperplasia of dermal tissue is found, and the follicles are obviously cystic. No obvious hyperplasia of sebaceous glands is found, and no inflammation is found under the skin is marked as “+”: the dermal tissue has segmental hyperplasia, which is not obvious, A small number of hair follicles have cystic changes, and the sebaceous glands have mild hyperplasia and hypertrophy. There is no obvious inflammation under the skin, which is marked as “++”: the dermal tissue cells of the skin have different degrees of segmental hyperplasia, and some hair follicles have cystic changes, showing uneven size of hair follicles, and no cells around. The sebaceous glands have hyperplasia, and the nuclei in the proliferative glands are few. […]

Setting [1] is: external use (0.25% CLY cream; positive: Differin).
Setting [2] is: intravenous injection 1 mg/kg·d.
[3] abbreviates: external 5% tincture twice a day.
[4] abbreviates: intravenous injection 2 mg/kg·d.

Marks after values point to notes of the source that are not given here.

As for `CCN1CCC[C@@H](N(C(=O)c2ccc(-n3nnc4cccnc43)cc2)c2ncccc2Cl)C1` [CLY-2, (R)-4-(3H-[1,2,3]triazolo[4,5-b]pyridin-3-yl)-N-(3-chloropyridin-2-yl)-N-(1-ethylpiperidin-3-yl)benzamide], in the series on rabbit ear acne model (setting [1]), the epidermal thickness came out at 0.2348 ± 0.0169 mm, the hair follicle area is 0.2639 ± 0.0934* mm^2 and the sebaceous gland diameter is recorded as 0.0687 ± 0.0375 mm. In the series on rabbit ear acne model (setting [2]), the epidermal thickness was 0.2265 ± 0.0165 mm, the hair follicle area is 0.2232 ± 0.0859* mm^2 and the sebaceous gland diameter worked out at 0.0496 ± 0.0298 mm. In addition, in the series on rat hair loss model (setting [3]), the 15-day hair length is recorded as 9.1* mm, the 30-day hair length was 10.1* mm, the 45-day hair length was 15.3* mm and the 60-day hair length is recorded as 18.9* mm. Further, in the series with rat hair loss model (setting [4]), the 15-day hair length was 9.2* mm, the 30-day hair length was 10.3* mm, the 45-day hair length is 15.6* mm and the 60-day hair length is 19.1* mm. Further, the adverse reactions entry with rat hair loss model is “no obvious adverse reactions”.

In the case of `CN1CCC[C@@H](N(C(=O)c2ccc(-n3nnc4cccnc43)cc2)c2ncccc2Cl)C1` [CLY-1, (R)-4-(3H-[1,2,3]triazolo[4,5-b]pyridin-3-yl)-N-(3-chloropyridin-2-yl)-N-(1-methylpiperidin-3-yl)benzamide], in the series on rabbit ear acne model (setting [1]), the epidermal thickness is given as 0.2376 ± 0.0182 mm, the hair follicle area is recorded as 0.2736 ± 0.0967* mm^2 and the sebaceous gland diameter is on record as 0.0825 ± 0.0389 mm. Also, in the series on rabbit ear acne model (setting [2]), the epidermal thickness was found to be 0.2287 ± 0.0171 mm, the hair follicle area is 0.2256 ± 0.0863* mm^2 and the sebaceous gland diameter worked out at 0.0536 ± 0.0312 mm. Also, in the series on rat hair loss model (setting [3]), the 15-day hair length was 8.3* mm, the 30-day hair length is on record as 9.3* mm, the 45-day hair length is given as 14.2* mm and the 60-day hair length is recorded as 17.6* mm. Besides, in the series with rat hair loss model (setting [4]), the 15-day hair length was 8.7* mm, the 30-day hair length is on record as 9.6* mm, the 45-day hair length was 14.6* mm and the 60-day hair length is recorded as 17.9* mm. Besides, the adverse reactions result with rat hair loss model is “no obvious adverse reactions”.

In the case of `Nc1ccccc1-c1ccc(C(=O)N(c2ncccc2Cl)[C@@H]2CCCNC2)cc1` [CLY-39], in the series on rabbit ear acne model (setting [1]), the epidermal thickness turned out to be 0.2312 ± 0.0152 mm, the hair follicle area is reported as 0.2315 ± 0.0662* mm^2 and the sebaceous gland diameter is on record as 0.0716 ± 0.0323 mm. Moreover, in the series on rabbit ear acne model (setting [2]), the epidermal thickness came out at 0.2056 ± 0.0156 mm, the hair follicle area is given as 0.2056 ± 0.0762* mm^2 and the sebaceous gland diameter is on record as 0.0531 ± 0.0306 mm. Also, in the series with rat hair loss model (setting [3]), the 15-day hair length is given as 9.1* mm, the 30-day hair length is 9.3* mm, the 45-day hair length is reported as 14.8* mm and the 60-day hair length is 18.2* mm. Also, in the series on rat hair loss model (setting [4]), the 15-day hair length is 9.3* mm, the 30-day hair length was 9.9* mm, the 45-day hair length is on record as 14.9* mm and the 60-day hair length is on record as 18.1* mm. For the same compound, in the series with rat hair loss model, the adverse reactions result is on record as “no obvious adverse reactions”.

As for `COC1CCCC(N(C(=O)c2ccc(-n3nnc4cccnc43)cc2)c2ncccc2Cl)C1` (stereo not shown) [CLY-5], in the series with rat hair loss model (setting [3]), the 15-day hair length is given as 9.2* mm, the 30-day hair length was 10.2* mm, the 45-day hair length is recorded as 15.5* mm and the 60-day hair length was 18.9* mm. Also, in the series with rat hair loss model (setting [4]), the 15-day hair length is 7.8* mm, the 30-day hair length is recorded as 9.3* mm, the 45-day hair length is reported as 13.7* mm and the 60-day hair length is given as 16.4* mm. Moreover, the adverse reactions result in the series with rat hair loss model is reported as “no obvious adverse reactions”.

As for `CNC1CCCC(N(C(=O)c2ccc(-n3nnc4cccnc43)cc2)c2ncccc2Cl)C1` (stereo not shown) [CLY-3], in the series with rabbit ear acne model (setting [1]), the epidermal thickness amounted to 0.2385 ± 0.0198 mm, the hair follicle area is reported as 0.2923 ± 0.0987* mm^2 and the sebaceous gland diameter amounted to 0.0837 ± 0.0412 mm. In addition, in the series with rabbit ear acne model (setting [2]), the epidermal thickness came to 0.2316 ± 0.0196 mm, the hair follicle area is given as 0.2287 ± 0.0883* mm^2 and the sebaceous gland diameter was found to be 0.0575 ± 0.0354 mm. In the series on rat hair loss model (setting [3]), the 15-day hair length is 7.5* mm, the 30-day hair length is on record as 8.6* mm, the 45-day hair length is listed as 12.45* mm and the 60-day hair length was 16.3* mm. Also, in the series with rat hair loss model (setting [4]), the 15-day hair length was 7.3* mm, the 30-day hair length is recorded as 8.9* mm, the 45-day hair length is on record as 13.9* mm and the 60-day hair length is given as 16.8* mm. Besides, the adverse reactions entry in the series with rat hair loss model is reported as “no obvious adverse reactions”.

Take `Nc1cc(N2CCCCC2)nc(N)[n+]1[O-]` [Positive control group, minoxidil, reference compound]: in the series with rat hair loss model (setting [3]), the 15-day hair length was 7.6* mm, the 30-day hair length was 8.5* mm, the 45-day hair length is listed as 13.1* mm and the 60-day hair length is reported as 16.2* mm.

For the origin of these results see US20240300945A1, “CLY SERIES COMPOUND, PREPARATION METHOD THEREFOR AND USE THEREOF IN PREPARATION OF DRUGS” (NANJING WELLBEST PHARMACEUTICAL CO., LTD, priority 2021, published 2024).
